Measurements taken from patent publication US9695155B2, “Herbicidal substituted pyrimidinyloxy benzene compounds” (E. I. DU PONT DE NEMOURS AND COMPANY, priority 2013, dated 2017).

What was measured:
barnyardgrass [1] = assay: Test C preemergence; assay type: in vivo, Echinochloa crus-galli; settings: for Barnyardgrass plant response rating: preemergence; for Plant response rating, Barnyardgrass: Preemergence, scale 0 to 100, 0 no effect, 100 complete control
In short: (§1)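 Seeds were sown in loam–sand blend and sprayed preemergence, while plants at 1- to 4-leaf stage (2–18 cm) in peat-based medium received postemergence sprays; test chemicals were formulated in a non-phytotoxic solvent with surfactant. After 13–15 days in a greenhouse, injury was rated visually against controls, 0 (no effect) to 100 (complete control).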

rice = assay: Test B flooded paddy test; assay type: in vivo, Oryza sativa; settings: Flood, 250 g ai/ha; 0 to 100 scale where 0 is no effect and 100 is complete control
In short: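 Plants at 2-leaf stage; pots flooded to 3 cm above soil and compound applied directly into paddy water, depth held throughout. After 13 to 15 days in greenhouse, visual rating versus controls on 0 (no effect) to 100 (complete control) scale.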

pigweed [2] = assay: Test A preemergence; assay type: in vivo, Amaranthus retroflexus
In short: (§2)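 Scoring: eye-based comparison with untreated controls, 0 for no effect through 100 for complete control, at about day 10. Treatments: directed soil spray preemergence; foliar spray postemergence on 2–10 cm plants at the one- to two-leaf stage. Medium: loam soil with sand.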

giant foxtail [3] = assay: Test A preemergence; assay type: in vivo, Setaria faberii
In short: as §2

barnyardgrass [4] = assay: Test C postemergence; assay type: in vivo, Echinochloa crus-galli
Source text: (§3) Seeds of plant species selected from blackgrass (Alopecurus myosuroides), Italian ryegrass (Lolium multiflorum), wheat, winter (winter wheat, Triticum aestivum), galium (catchweed bedstraw, Galium aparine), corn (Zea mays), large (Lg) crabgrass (Digitaria sanguinalis), giant foxtail (Setaria faberii), johnsongrass (Sorghum halepense), lambsquarters (Chenopodium album), morningglory (Ipomoea coccinea), yellow nutsedge (Cyperus esculentus), pigweed (Amaranthus retroflexus), ragweed (common ragweed, Ambrosia elatior), soybean (Glycine max), barnyardgrass (Echinochloa crus-galli), oilseed rape (Brassica napus), waterhemp (common waterhemp, Amaranthus rudis), kochia (Kochia scoparia), wild oat (Avena fatua), surinam grass (Brachiaria decumbens), foxtail, green (green foxtail, Setaria viridis), goosegrass (Eleusine indica), bromegrass, downy (downy bromegrass, Bromus tectorum), nightshade (eastern black nightshade, Solanum ptycanthum), cocklebur (common cocklebur, Xanthium strumarium), cupgrass, woolly (woolly cupgrass, Eriochloa villosa), bermudagrass (Cynodon dactylon), sunflower, (common oilseed sunflower, Helianthus annuus), Russian thistle (Salsola kali), and velvetleaf (Abutilon theophrasti) were planted into a blend of loam soil and sand and treated preemergence with test chemicals formulated in a non-phytotoxic solvent mixture which included a surfactant.
(§4) At the same time, plants selected from these crop and weed species and also barley, winter (winter barley, Hordeum vulgare), windgrass (Apera spica-venti), chickweed (common chickweed, Stellaria media), deadnettle (henbit deadnettle, Lamium amplexicaule), and canarygrass (littleseed canarygrass, Phalaris minor) were planted in pots containing Redi-Earth® planting medium (Scotts Company, 14111 Scottslawn Road, Marysville, Ohio 43041) comprising spaghnum peat moss, vermiculite, wetting agent and starter nutrients and treated with postemergence applications of test chemicals formulated in the same manner. Plants ranged in height from 2 to 18 cm (1- to 4-leaf stage) for postemergence treatments. Treated plants and controls were maintained in a greenhouse for 13 to 15 days, after which time all species were compared to controls and visually evaluated. Plant response ratings, summarized in Table C, are based on a scale of 0 to 100 where 0 is no effect and 100 is complete control. A dash (-) response means no test result.

wheat, winter = assay: Test C postemergence; assay type: in vivo, Triticum aestivum; settings: for Plant response rating, Wheat: scale 0 to 100 (0 no effect, 100 complete control)
Source text: as §3, §4

Italian ryegrass = assay: Test C postemergence; assay type: in vivo, Lolium multiflorum; settings: for Plant response rating, Ryegrass, Italian: scale 0 to 100 (0 no effect, 100 complete control)
Source text: as §3, §4

kochia = assay: Test C postemergence; assay type: in vivo, Kochia scoparia
Source text: as §3, §4

yellow nutsedge = assay: Test C preemergence; assay type: in vivo, Cyperus esculentus; settings: for Nutsedge, Yellow plant response rating: preemergence; for Plant response rating, Nutsedge, Yellow: Preemergence, scale 0 to 100, 0 no effect, 100 complete control
In short: as §1

pigweed [5] = assay: Test C preemergence; assay type: in vivo, Amaranthus retroflexus; settings: for Pigweed plant response rating: preemergence; for Plant response rating, Pigweed: Preemergence, scale 0 to 100, 0 no effect, 100 complete control
In short: as §1

galium = assay: Test C postemergence; assay type: in vivo, Galium aparine
Source text: as §3, §4

giant foxtail [6] = assay: Test C preemergence; assay type: in vivo, Setaria faberii; settings: for Foxtail, Giant plant response rating: preemergence; for Plant response rating, Foxtail, Giant: Preemergence, scale 0 to 100, 0 no effect, 100 complete control
In short: as §1

corn = assay: Test C postemergence; assay type: in vivo, Zea mays
Source text: as §3, §4

velvetleaf = assay: Test A postemergence; assay type: in vivo, Abutilon theophrasti
In short: as §2

[7] = 16 g ai/ha, scale 0 to 100 (0 no effect, 100 complete control)
[8] = 62 g ai/ha, scale 0 (no effect) to 100 (complete control)
[9] = 125 g ai/ha, scale 0 (no effect) to 100 (complete control)
[10] = 125 g ai/ha, 0 to 100 scale where 0 is no effect and 100 is complete control
[11] = 500 g ai/ha, 0 to 100 scale, 0 no effect, 100 complete control, approx. 10 days
[12] = 16 g ai/ha, postemergence, visual rating, scale 0 to 100 (0 no effect, 100 complete control), 13 to 15 days
[13] = Postemergence, 31 g ai/ha, scale 0 to 100 (0 no effect, 100 complete control), 13 to 15 days
[14] = Postemergence, 62 g ai/ha, scale 0 to 100 (0 no effect, 100 complete control)
[15] = Postemergence, 31 g ai/ha, 13 to 15 days
[16] = 1000 g ai/ha, 0 to 100 scale, 0 no effect, 100 complete control, approx. 10 days
[17] = 16 g ai/ha, postemergence, 0 is no effect, 100 is complete control
[18] = 125 g ai/ha, postemergence, visual rating, scale 0 to 100 (0 no effect, 100 complete control)
[19] = 125 g ai/ha, postemergence, visual rating
[20] = 500 g ai/ha, 0 to 100 scale where 0 is no effect and 100 is complete control

CCOc1cn(-c2c(Br)cccc2Oc2ncc(Cl)cn2)nn1 [Compound 84]
Barnyardgrass plant response rating (barnyardgrass [1]; [7]): 0 | Barnyardgrass plant response rating (barnyardgrass [1]; [8]): 40 | Barnyardgrass plant response rating (barnyardgrass [1]; [9]): 85 | Plant response rating, Barnyardgrass (barnyardgrass [1]; 31 g ai/ha): 25 | Plant response rating, Rice (rice): 0 | Plant response rating, Pigweed (pigweed [2]; [10]): 100 | Pigweed plant response rating (pigweed [2]; [11]): 100 | Plant response rating, Foxtail, Giant (giant foxtail [3]; [10]): 70 | Foxtail, Giant plant response rating (giant foxtail [3]; [11]): 100 | Barnyardgrass plant response rating (barnyardgrass [4]; [12]): 0 | Plant response rating (0 to 100), Barnyardgrass (barnyardgrass [4]; 125 g ai/ha, postemergence): 15 | Plant response rating, Barnyardgrass (barnyardgrass [4]; [13]): 0 | Plant response rating, Barnyardgrass (barnyardgrass [4]; [14]): 0 | Plant response rating (0 to 100), Wheat (wheat, winter; 125 g ai/ha, postemergence): 0 | Plant response rating, Wheat (wheat, winter; [15]): 0 | Plant response rating, Wheat (wheat, winter; Postemergence, 62 g ai/ha): 0 | Plant response rating (0 to 100), Ryegrass, Italian (Italian ryegrass; 125 g ai/ha, postemergence): 0 | Plant response rating, Ryegrass, Italian (Italian ryegrass; [15]): 0 | Plant response rating, Ryegrass, Italian (Italian ryegrass; Postemergence, 62 g ai/ha): 0 | Kochia plant response rating (kochia; [12]): 55 | Plant response rating (0 to 100), Kochia (kochia; 125 g ai/ha, postemergence): 80 | Plant response rating, Kochia (kochia; [13]): 55 | Plant response rating, Kochia (kochia; [14]): 70 | Nutsedge, Yellow plant response rating (yellow nutsedge; [7]): 0 | Nutsedge, Yellow plant response rating (yellow nutsedge; [8]): 5 | Nutsedge, Yellow plant response rating (yellow nutsedge; [9]): 40 | Plant response rating, Nutsedge, Yellow (yellow nutsedge; 31 g ai/ha): 0 | Pigweed plant response rating (pigweed [5]; [7]): 85 | Pigweed plant response rating (pigweed [5]; [8]): 100 | Pigweed plant response rating (pigweed [5]; [9]): 100 | Plant response rating, Pigweed (pigweed [5]; 31 g ai/ha): 100 | Galium plant response rating (galium; [12]): 60 | Plant response rating (0 to 100), Galium (galium; 125 g ai/ha, postemergence): 95 | Plant response rating, Galium (galium; [13]): 75 | Plant response rating, Galium (galium; [14]): 60 | Foxtail, Giant plant response rating (giant foxtail [6]; [7]): 5 | Foxtail, Giant plant response rating (giant foxtail [6]; [8]): 98 | Foxtail, Giant plant response rating (giant foxtail [6]; [9]): 100 | Plant response rating, Foxtail, Giant (giant foxtail [6]; 31 g ai/ha): 55 | Corn plant response rating (corn; [12]): 0 | Plant response rating (0 to 100), Corn (corn; 125 g ai/ha, postemergence): 5 | Plant response rating, Corn (corn; [13]): 0 | Plant response rating, Corn (corn; [14]): 0

N#Cc1cn(-c2c(Br)cccc2Oc2ncc(Cl)cn2)nn1 [Compound 116]
Barnyardgrass plant response rating (barnyardgrass [1]; [7]): 0 | Barnyardgrass plant response rating (barnyardgrass [1]; [8]): 45 | Barnyardgrass plant response rating (barnyardgrass [1]; [9]): 70 | Plant response rating, Barnyardgrass (barnyardgrass [1]; 31 g ai/ha): 25 | Plant response rating, Velvetleaf (velvetleaf; 1000 g ai/ha, 0 to 100 scale, 0 no effect, 100 complete control): 100 | Plant response rating, Rice (rice): 0 | Pigweed plant response rating (pigweed [2]; [16]): 100 | Foxtail, Giant plant response rating (giant foxtail [3]; [16]): 100 | Plant response rating (0 to 100), Barnyardgrass (barnyardgrass [4]; [17]): 0 | Plant response rating, Barnyardgrass (barnyardgrass [4]; [18]): 20 | Plant response rating, Barnyardgrass (barnyardgrass [4]; [13]): 5 | Plant response rating, Barnyardgrass (barnyardgrass [4]; [14]): 5 | Plant response rating (0 to 100), Wheat (wheat, winter; [17]): 0 | Plant response rating, Wheat (wheat, winter; [19]): 5 | Plant response rating, Wheat (wheat, winter; Postemergence, 62 g ai/ha): 5 | Plant response rating (0 to 100), Ryegrass, Italian (Italian ryegrass; [17]): 5 | Plant response rating, Ryegrass, Italian (Italian ryegrass; [19]): 5 | Plant response rating, Ryegrass, Italian (Italian ryegrass; Postemergence, 62 g ai/ha): 5 | Plant response rating (0 to 100), Kochia (kochia; [17]): 70 | Plant response rating, Kochia (kochia; [18]): 95 | Plant response rating, Kochia (kochia; [14]): 90 | Nutsedge, Yellow plant response rating (yellow nutsedge; [7]): 0 | Nutsedge, Yellow plant response rating (yellow nutsedge; [8]): 10 | Nutsedge, Yellow plant response rating (yellow nutsedge; [9]): 40 | Plant response rating, Nutsedge, Yellow (yellow nutsedge; 31 g ai/ha): 5 | Pigweed plant response rating (pigweed [5]; [7]): 75 | Pigweed plant response rating (pigweed [5]; [8]): 100 | Pigweed plant response rating (pigweed [5]; [9]): 100 | Plant response rating, Pigweed (pigweed [5]; 31 g ai/ha): 100 | Plant response rating (0 to 100), Galium (galium; [17]): 55 | Plant response rating, Galium (galium; [18]): 80 | Plant response rating, Galium (galium; [14]): 80 | Foxtail, Giant plant response rating (giant foxtail [6]; [7]): 0 | Foxtail, Giant plant response rating (giant foxtail [6]; [8]): 85 | Foxtail, Giant plant response rating (giant foxtail [6]; [9]): 95 | Plant response rating, Foxtail, Giant (giant foxtail [6]; 31 g ai/ha): 10 | Plant response rating (0 to 100), Corn (corn; [17]): 0 | Plant response rating, Corn (corn; [18]): 5 | Plant response rating, Corn (corn; [14]): 5

CCOc1cnn(-c2ccccc2Oc2ncc(Cl)cn2)c1 [Compound 187]
Barnyardgrass plant response rating (barnyardgrass [1]; [7]): 5 | Barnyardgrass plant response rating (barnyardgrass [1]; [9]): 90 | Plant response rating, Barnyardgrass (barnyardgrass [1]; 62 g ai/ha): 65 | Velvetleaf plant response rating (velvetleaf; [10]): 100 | Plant response rating, Velvetleaf (velvetleaf; [20]): 100 | Plant response rating, Rice (rice): 0 | Pigweed plant response rating (0 to 100 scale) (pigweed [2]; 125 g ai/ha): 100 | Pigweed plant response rating (pigweed [2]; [20]): 100 | Foxtail, Giant plant response rating (0 to 100 scale) (giant foxtail [3]; 125 g ai/ha): 100 | Foxtail, Giant plant response rating (giant foxtail [3]; [20]): 100 | Nutsedge, Yellow plant response rating (yellow nutsedge; [7]): 0 | Nutsedge, Yellow plant response rating (yellow nutsedge; [9]): 5 | Plant response rating, Nutsedge, Yellow (yellow nutsedge; 62 g ai/ha): 5 | Pigweed plant response rating (pigweed [5]; [7]): 45 | Pigweed plant response rating (pigweed [5]; [9]): 100 | Plant response rating, Pigweed (pigweed [5]; 62 g ai/ha): 90 | Foxtail, Giant plant response rating (giant foxtail [6]; [7]): 0 | Foxtail, Giant plant response rating (giant foxtail [6]; [9]): 85 | Plant response rating, Foxtail, Giant (giant foxtail [6]; 62 g ai/ha): 85
